Assay results published in patent publication US9758559B2, “Short peptides derived from VDAC1, compositions and methods of use thereof” (B.G. NEGEV TECHNOLOGIES AND APPLICATIONS LTD., AT …, priority 2013, dated 2017).
Where a SMILES comes first, the peptide text is derived from it. [ ]: non-standard residue; d: D form.

Test system: CLL-derived lymphocytes
Assay: Cell death of CLL-derived lymphocytes (PBMCs of CLL patients), PI staining and FACS
Format: cell-based, human
Conditions: 90 min incubation, PI staining, FACS, read-out: IC50, induction of cell death, CLL
Experimental: PBMCs were isolated from venous blood of the CLL patients by Ficoll-Paque PLUS (GE Healthcare, Israel) density gradient centrifugation, as follows. Venous blood (10-20 ml) was drawn from CLL patients with satisfying diagnostic criteria for CLL or from normal adult donors. Blood was collected into heparin tubes and was diluted 1:1 with balance solution composed of two stock solutions, A (1% D-glucose, 50 mM CaCl2, 0.98 mM MgCl2, 5.4 mM KCl and 0.145 M Tris-HCl, pH 7.6) and B (0.14 M NaCl) in a 1:9 ratio. The resulting mix was carefully layered on Ficoll-Paque Plus (10 ml of diluted blood:15 ml Ficoll) in 50 ml conical tubes. The tubes were centrifuged at 400×g (with minimal acceleration and deceleration) and 18-20° C. for 40 min. […] Cells were counted by a Countess Automated Cell Counter (Invitrogen).
PBMCs (4×10^5 or 8×10^5 cells/sample) were incubated in 200 μl serum-free medium with the examined peptide for 90 min at room temperature and centrifuged (500×g, 5 min) Cell death was analyzed by PI staining and flow cytometer (Beckton-Dickinson) and BD Cell Quest Pro software. Apoptotic cell death was also analyzed by PI and annexin V-FITC staining (Zaid H et al. 2005. 12:751-760), and by acridine orange and ethidium bromide staining and confocal microscopy (Olympus 1×81). […]

With CC[C@@H](C)[C@@H](NC(=O)[C@@H](CCCCN)NC(=O)[C@H](NC(=O)[C@@H](CCC(N)=O)NC(=O)[C@@H](CCCNC(=N)N)NC(=O)[C@@H](CC(C)C)NC(=O)CNC(=O)[C@@H](Cc1ccccc1)NC(=O)CNC(=O)[C@@H](Cc1ccc(O)cc1)NC(=O)CNC(=O)[C@@H](CCCCN)NC(=O)[C@H](NC(=O)[C@@H](Cc1ccccc1)NC(=O)[C@H](NC(=O)[C@@H](CC(=O)O)NC(=O)[C@H](N)CCCNC(=N)N)C(C)C)[C@H](C)O)[C@H](C)CC)C(=O)N[C@H](Cc1c[nH]c2ccccc12)C(=O)N[C@H](Cc1ccccc1)C(=O)N[C@H](CCC(N)=O)C(=O)N[C@H](CC(N)=O)C(=O)N[C@H](CCCNC(=N)N)C(=O)N[C@H](CCCNC(=N)N)C(=O)N[C@H](CCSC)C(=O)N[C@H](CCCCN)C(=O)N[C@H](Cc1c[nH]c2ccccc12)C(=O)N[C@H](CCCCN)C(=O)N[C@H](CCCCN)C(=O)O [D-Δ(1-14) N-Ter-Antp, ALL D-RDVFTKGYGFGL RQIKIWFQNRRMKWKK] (H-[dR][dD][dV][dF][dT][dK]G[dY]G[dF]G[dL][dR][dQ][dI][dK][dI][dW][dF][dQ][dN][dR][dR][dM][dK][dW][dK][dK]-OH) the IC50 was 1300 ± 100 nM.
